# Measurements reported in article PMC12475274, “Harnessing indole scaffolds to identify small-molecule IRE1α inhibitors modulating XBP1 mRNA splicing” (Nature Communications, 2025).
# Legend:
# [1] = target: GSG2 (Haspin) (Homo sapiens, UniProt Q8TF76); assay: Kinase profiling (SelectScreen), Adapta; format: biochemical
# Experimental: (§1) Kinase profiling was conducted by the SelectScreen Kinase Profiling Services (Thermo Fisher), using Z′-LYTE, Adapta, or LanthaScreen Eu Kinase Binding Assay for different kinases. The kinome phylogenetic tree was generated using the KinMap web portal.
# [2] = target: T1, phosphorylated IRE1α (Homo sapiens, UniProt O75460); assay: Microscale thermophoresis (MST), p-IRE1α; format: binding
# T1 construct: Human IRE1α kinase and RNase domain (residues 547–977) was subcloned into pLIB plasmid; His tag (with TEV cleavage site) (N, cleaved yes); made in house; host or cells: Sf9 insect cells, baculovirus (Bac-to-Bac)
# Experimental: (§2) Dephosphorylated IRE1α protein and phosphorylated IRE1α protein were labeled and purified using Protein Labeling Kit RED-NHS 2nd Generation (NanoTemper, MO-L011), following the manufacturer’s protocol. The labeling buffer contained 50 mM HEPES, pH 7.5, 200 mM NaCl, 2% glycerol, 0.5 mM TCEP, 0.05% tween20. MST experiments were performed using the Monolith Nt.115 instrument (NanoTemper), and binding experiments were conducted according to the instrument’s instructions. Compounds were serially diluted 2-fold and incubated with labeled IRE1α protein at a final concentration of 20 nM. The highest compound concentration measured was 250 μM with a final DMSO concentration of 2.5%. Measurements were carried out using the red detector with 60% excitation power. Data were analyzed using the manufacturer’s software, and results from three individual measurements were merged for analysis.
# [3] = target: T2, dephosphorylated IRE1α (Homo sapiens, UniProt O75460); assay: Microscale thermophoresis (MST), IRE1α; format: binding
# T2 construct: Human IRE1α kinase and RNase domain (residues 547–977) was subcloned into pLIB plasmid; His tag (with TEV cleavage site) (N, cleaved yes); made in house; host or cells: Sf9 insect cells, baculovirus (Bac-to-Bac)
# Experimental: as §2
# [4] = target: TLK1 (Homo sapiens, UniProt Q9UKI8); assay: Kinase profiling (SelectScreen), LanthaScreen Binding; conditions: IA107 at 5 μM
# Experimental: as §1
# [5] = target: MAP4K1 (HPK1) (Homo sapiens, UniProt Q92918); assay: as above; conditions: IA107 at 5 μM
# Experimental: as §1
# [6] = target: TNIK (Homo sapiens, UniProt Q9UKE5); assay: as above; conditions: IA107 at 5 μM
# Sequence of TNIK (Q9UKE5 whole entry): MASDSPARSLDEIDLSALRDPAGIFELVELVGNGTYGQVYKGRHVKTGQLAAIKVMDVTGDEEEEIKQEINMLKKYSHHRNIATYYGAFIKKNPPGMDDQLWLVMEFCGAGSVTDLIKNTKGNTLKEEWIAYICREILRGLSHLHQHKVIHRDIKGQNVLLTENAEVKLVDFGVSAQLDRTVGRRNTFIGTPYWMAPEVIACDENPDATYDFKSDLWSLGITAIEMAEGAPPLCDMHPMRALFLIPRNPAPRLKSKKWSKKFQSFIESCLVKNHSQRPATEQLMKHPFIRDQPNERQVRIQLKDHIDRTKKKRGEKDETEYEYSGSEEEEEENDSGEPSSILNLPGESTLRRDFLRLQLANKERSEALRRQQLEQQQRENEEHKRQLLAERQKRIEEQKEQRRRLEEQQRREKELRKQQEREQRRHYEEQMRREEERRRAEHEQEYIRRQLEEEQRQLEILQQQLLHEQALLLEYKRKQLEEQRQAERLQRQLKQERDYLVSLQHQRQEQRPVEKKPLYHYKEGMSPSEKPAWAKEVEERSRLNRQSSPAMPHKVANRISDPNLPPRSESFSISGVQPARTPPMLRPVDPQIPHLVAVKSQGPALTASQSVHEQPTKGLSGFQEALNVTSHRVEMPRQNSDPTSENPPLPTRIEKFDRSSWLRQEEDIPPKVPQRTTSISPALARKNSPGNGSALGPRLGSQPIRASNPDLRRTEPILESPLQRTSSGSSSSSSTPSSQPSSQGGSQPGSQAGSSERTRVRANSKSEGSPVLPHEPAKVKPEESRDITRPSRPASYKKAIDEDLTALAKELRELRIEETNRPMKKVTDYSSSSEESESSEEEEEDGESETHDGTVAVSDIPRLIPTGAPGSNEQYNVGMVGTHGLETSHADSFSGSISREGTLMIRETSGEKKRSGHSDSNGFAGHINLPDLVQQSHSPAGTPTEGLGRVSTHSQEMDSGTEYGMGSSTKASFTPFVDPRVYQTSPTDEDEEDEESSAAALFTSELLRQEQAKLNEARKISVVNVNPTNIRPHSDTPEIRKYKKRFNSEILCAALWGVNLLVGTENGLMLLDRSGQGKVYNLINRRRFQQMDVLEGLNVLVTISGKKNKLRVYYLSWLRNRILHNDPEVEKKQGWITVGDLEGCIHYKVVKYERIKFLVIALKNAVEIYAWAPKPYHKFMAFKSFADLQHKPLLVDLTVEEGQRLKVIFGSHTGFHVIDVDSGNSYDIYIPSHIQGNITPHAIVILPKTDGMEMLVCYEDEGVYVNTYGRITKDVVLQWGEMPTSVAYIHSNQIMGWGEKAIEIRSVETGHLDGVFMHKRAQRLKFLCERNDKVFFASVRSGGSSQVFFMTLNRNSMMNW
# Experimental: as §1
# [7] = target: CASK (Homo sapiens, UniProt O14936); assay: as above; conditions: IA107 at 5 μM
# Experimental: as §1
# [8] = target: ICK (Homo sapiens, UniProt Q9UPZ9); assay: as above; conditions: IA107 at 5 μM
# Experimental: as §1
# [9] = target: STK38 (NDR) (Homo sapiens, UniProt Q15208); assay: as above; conditions: IA107 at 5 μM
# Experimental: as §1
# [10] = target: MAP3K11 (MLK3) (Homo sapiens, UniProt Q16584); assay: as above; conditions: IA107 at 5 μM
# Sequence of MAP3K11 (MLK3) (Q16584 whole entry): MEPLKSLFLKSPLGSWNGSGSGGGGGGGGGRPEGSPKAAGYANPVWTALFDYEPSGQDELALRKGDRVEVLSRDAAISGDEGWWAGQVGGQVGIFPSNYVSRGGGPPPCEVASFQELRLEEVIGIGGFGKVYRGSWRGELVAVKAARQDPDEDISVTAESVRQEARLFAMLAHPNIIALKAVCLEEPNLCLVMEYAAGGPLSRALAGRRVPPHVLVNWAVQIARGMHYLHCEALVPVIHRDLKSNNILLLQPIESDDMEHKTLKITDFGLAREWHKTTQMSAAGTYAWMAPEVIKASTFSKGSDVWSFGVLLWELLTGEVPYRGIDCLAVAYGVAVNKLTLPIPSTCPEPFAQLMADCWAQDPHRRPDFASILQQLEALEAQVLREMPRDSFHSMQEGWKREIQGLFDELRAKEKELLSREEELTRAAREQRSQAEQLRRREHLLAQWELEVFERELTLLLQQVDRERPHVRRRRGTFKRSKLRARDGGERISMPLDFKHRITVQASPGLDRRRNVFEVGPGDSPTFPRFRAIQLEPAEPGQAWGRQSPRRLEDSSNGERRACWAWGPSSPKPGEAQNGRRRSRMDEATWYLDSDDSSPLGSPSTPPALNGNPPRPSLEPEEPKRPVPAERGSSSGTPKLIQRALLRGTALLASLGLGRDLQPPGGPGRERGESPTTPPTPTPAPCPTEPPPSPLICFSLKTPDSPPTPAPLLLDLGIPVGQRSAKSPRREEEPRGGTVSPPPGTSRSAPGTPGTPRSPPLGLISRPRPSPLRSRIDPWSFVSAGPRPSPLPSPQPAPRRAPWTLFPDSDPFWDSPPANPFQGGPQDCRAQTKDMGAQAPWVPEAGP
# Experimental: as §1
# [11] = target: CDC7/DBF4 (Homo sapiens, UniProt O00311); assay: as above; conditions: IA107 at 5 μM
# Experimental: as §1
# [12] = target: TTK (Homo sapiens, UniProt P33981); assay: as above; conditions: IA107 at 5 μM
# Experimental: as §1
# [13] = target: BMPR1B (ALK6) (Homo sapiens, UniProt O00238); assay: as above; conditions: IA107 at 5 μM
# Experimental: as §1
# [14] = target: MYO3B (MYO3 beta) (Homo sapiens, UniProt Q8WXR4); assay: as above; conditions: IA107 at 5 μM
# Experimental: as §1
# [15] = target: ULK2 (Homo sapiens, UniProt Q8IYT8); assay: as above; conditions: IA107 at 5 μM
# Experimental: as §1
# [16] = target: BMPR2 (Homo sapiens, UniProt Q13873); assay: as above; conditions: IA107 at 5 μM
# Experimental: as §1
# [17] = target: MAP3K14 (NIK) (Homo sapiens, UniProt Q99558); assay: as above; conditions: IA107 at 5 μM
# Sequence of MAP3K14 (NIK) (Q99558 whole entry): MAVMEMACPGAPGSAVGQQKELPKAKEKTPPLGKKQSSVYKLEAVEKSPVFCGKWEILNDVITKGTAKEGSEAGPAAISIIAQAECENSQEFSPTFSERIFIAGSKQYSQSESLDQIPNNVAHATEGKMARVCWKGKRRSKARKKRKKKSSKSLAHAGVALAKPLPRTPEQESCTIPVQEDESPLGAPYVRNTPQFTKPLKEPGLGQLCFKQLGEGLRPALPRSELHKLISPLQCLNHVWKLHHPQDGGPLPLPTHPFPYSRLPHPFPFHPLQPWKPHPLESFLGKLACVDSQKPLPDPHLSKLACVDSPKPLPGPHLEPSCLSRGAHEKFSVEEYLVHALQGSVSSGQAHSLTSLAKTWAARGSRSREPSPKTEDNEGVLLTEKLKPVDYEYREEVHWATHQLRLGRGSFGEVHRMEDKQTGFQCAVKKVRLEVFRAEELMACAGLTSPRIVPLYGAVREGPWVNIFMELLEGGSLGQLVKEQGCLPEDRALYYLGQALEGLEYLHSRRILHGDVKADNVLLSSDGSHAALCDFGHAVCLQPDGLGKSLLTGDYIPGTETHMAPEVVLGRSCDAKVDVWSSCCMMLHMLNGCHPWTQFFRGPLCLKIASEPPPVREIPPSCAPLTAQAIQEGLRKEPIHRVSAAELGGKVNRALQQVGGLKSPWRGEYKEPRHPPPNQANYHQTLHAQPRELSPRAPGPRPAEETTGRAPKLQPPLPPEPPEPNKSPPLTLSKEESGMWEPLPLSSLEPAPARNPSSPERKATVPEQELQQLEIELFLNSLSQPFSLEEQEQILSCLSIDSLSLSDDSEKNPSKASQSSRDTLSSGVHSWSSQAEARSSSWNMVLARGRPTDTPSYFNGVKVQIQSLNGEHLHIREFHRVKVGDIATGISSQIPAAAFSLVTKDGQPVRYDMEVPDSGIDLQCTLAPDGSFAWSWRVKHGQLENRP
# Experimental: as §1
# [18] = target: MAPK15 (ERK7) (Homo sapiens, UniProt Q8TD08); assay: as above; conditions: IA107 at 5 μM
# Experimental: as §1
# [19] = target: TGFBR1 (ALK5) (Homo sapiens, UniProt P36897); assay: as above; conditions: IA107 at 5 μM
# Sequence of TGFBR1 (ALK5) (P36897 34-503): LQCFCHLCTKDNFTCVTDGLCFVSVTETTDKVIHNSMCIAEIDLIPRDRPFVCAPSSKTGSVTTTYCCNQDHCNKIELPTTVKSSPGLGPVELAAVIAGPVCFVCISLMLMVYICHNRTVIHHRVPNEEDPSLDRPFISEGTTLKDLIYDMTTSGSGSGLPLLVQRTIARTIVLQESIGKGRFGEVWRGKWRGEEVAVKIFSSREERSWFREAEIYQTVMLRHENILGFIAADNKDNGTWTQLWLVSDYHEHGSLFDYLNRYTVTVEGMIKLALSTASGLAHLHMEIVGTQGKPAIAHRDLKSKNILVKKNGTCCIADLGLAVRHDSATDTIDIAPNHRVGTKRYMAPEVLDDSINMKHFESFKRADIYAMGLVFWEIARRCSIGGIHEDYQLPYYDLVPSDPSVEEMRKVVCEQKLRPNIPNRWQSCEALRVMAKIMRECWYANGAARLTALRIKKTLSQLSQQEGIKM
# Experimental: as §1
# [20] = target: STK33 (Homo sapiens, UniProt Q9BYT3); assay: as above; conditions: IA107 at 5 μM
# Experimental: as §1
# [21] = target: LIMK1 (Homo sapiens, UniProt P53667); assay: as above; conditions: IA107 at 5 μM
# Experimental: as §1
# [22] = target: CAMKK2 (CaMKK beta) (Homo sapiens, UniProt Q96RR4); assay: as above; conditions: IA107 at 5 μM
# Experimental: as §1
# [23] = target: DDR2 (Homo sapiens, UniProt Q16832); assay: as above; conditions: IA107 at 5 μM
# Sequence of DDR2 (Q16832 22-855): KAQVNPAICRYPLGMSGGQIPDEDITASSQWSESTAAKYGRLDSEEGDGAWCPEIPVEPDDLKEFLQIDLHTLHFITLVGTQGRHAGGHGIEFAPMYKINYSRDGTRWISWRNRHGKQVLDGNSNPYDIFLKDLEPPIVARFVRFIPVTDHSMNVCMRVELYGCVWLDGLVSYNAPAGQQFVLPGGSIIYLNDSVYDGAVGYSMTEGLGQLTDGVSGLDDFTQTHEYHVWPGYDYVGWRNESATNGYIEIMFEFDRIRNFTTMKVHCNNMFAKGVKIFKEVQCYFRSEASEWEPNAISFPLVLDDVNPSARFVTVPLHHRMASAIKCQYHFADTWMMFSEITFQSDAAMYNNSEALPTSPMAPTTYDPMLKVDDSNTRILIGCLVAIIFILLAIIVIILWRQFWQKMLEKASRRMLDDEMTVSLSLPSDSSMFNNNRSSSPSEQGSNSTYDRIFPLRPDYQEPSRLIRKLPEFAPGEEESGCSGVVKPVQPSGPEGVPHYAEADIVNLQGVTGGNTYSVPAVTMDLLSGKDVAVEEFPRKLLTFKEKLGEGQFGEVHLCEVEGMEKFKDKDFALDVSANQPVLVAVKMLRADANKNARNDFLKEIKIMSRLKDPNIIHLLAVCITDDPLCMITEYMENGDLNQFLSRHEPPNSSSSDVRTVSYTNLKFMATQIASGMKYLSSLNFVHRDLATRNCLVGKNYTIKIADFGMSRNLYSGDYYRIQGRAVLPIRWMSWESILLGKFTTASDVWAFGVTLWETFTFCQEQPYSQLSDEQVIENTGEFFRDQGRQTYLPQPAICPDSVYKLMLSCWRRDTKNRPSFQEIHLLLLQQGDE
# Experimental: as §1
# [24] = target: ACVR1 (ALK2) (Homo sapiens, UniProt Q04771); assay: as above; conditions: IA107 at 5 μM
# Experimental: as §1
# [25] = target: BRSK2 (Homo sapiens, UniProt Q8IWQ3); assay: as above; conditions: IA107 at 5 μM
# Experimental: as §1
# [26] = target: CAMK1D (CaMKI delta) (Homo sapiens, UniProt Q8IU85); assay: Kinase profiling (SelectScreen), ZLYTE; format: biochemical
# Experimental: as §1
# [27] = target: PIM1 (Homo sapiens, UniProt P11309); assay: Kinase profiling (SelectScreen), ZLYTE; format: biochemical
# Experimental: as §1
# [28] = target: CSNK2A1 (CK2 alpha 1) (Homo sapiens, UniProt P68400); assay: Kinase profiling (SelectScreen), ZLYTE; format: biochemical
# Sequence of CSNK2A1 (CK2 alpha 1) (P68400 whole entry): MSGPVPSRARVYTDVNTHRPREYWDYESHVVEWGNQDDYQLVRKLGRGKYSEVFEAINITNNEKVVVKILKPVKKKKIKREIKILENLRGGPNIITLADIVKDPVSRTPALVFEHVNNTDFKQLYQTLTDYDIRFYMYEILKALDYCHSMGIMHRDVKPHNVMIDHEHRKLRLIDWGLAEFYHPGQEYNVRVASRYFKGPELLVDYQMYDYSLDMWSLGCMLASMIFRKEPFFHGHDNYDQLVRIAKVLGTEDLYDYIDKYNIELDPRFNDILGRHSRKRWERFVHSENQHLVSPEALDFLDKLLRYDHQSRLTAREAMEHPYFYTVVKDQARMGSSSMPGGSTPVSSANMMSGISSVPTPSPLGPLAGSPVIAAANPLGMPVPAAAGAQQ
# Experimental: as §1
# [29] = target: PRKD1 (PKC mu) (Homo sapiens, UniProt Q15139); assay: Kinase profiling (SelectScreen), ZLYTE; format: biochemical
# Experimental: as §1
# [30] = target: RPS6KB1 (p70S6K) (Homo sapiens, UniProt P23443); assay: Kinase profiling (SelectScreen), ZLYTE; format: biochemical
# Experimental: as §1
# [31] = target: DYRK1A (Homo sapiens, UniProt Q13627); assay: Kinase profiling (SelectScreen), ZLYTE; format: biochemical
# Experimental: as §1
# [32] = target: FRAP1 (mTOR) (Homo sapiens, UniProt P42345); assay: Kinase profiling (SelectScreen), ZLYTE; format: biochemical
# Experimental: as §1
# [33] = target: IKBKB (IKK beta) (Homo sapiens, UniProt O14920); assay: Kinase profiling (SelectScreen), ZLYTE; format: biochemical
# Experimental: as §1
# [34] = target: GSK3B (GSK3 beta) (Homo sapiens, UniProt P49841); assay: Kinase profiling (SelectScreen), ZLYTE; format: biochemical
# Experimental: as §1
# [35] = target: JAK3 (Homo sapiens, UniProt P52333); assay: Kinase profiling (SelectScreen), ZLYTE; format: biochemical
# Experimental: as §1
smiles,measurement,setting,value
Cc1c(CCC(=O)O)c2cc(Br)ccc2n1C(=O)c1ccccc1 [IA107],inhibition at 5 µM,[1],4%
same,Kd,[2],152 nM
same,Kd,[3],1360 nM
same,inhibition at 5 µM,[4],-12%
same,inhibition at 5 µM,[5],-2%
same,inhibition at 5 µM,[6],8%
same,inhibition at 5 µM,[7],-14%
same,inhibition at 5 µM,[8],-2%
same,inhibition at 5 µM,[9],6%
same,inhibition at 5 µM,[10],-3%
same,inhibition at 5 µM,[11],8%
same,inhibition at 5 µM,[12],6%
same,inhibition at 5 µM,[13],12%
same,inhibition at 5 µM,[14],-2%
same,inhibition at 5 µM,[15],-3%
same,inhibition at 5 µM,[16],-4%
same,inhibition at 5 µM,[17],0%
same,inhibition at 5 µM,[18],17%
same,inhibition at 5 µM,[19],54%
same,inhibition at 5 µM,[20],-4%
same,inhibition at 5 µM,[21],-16%
same,inhibition at 5 µM,[22],4%
same,inhibition at 5 µM,[23],-1%
same,inhibition at 5 µM,[24],2%
same,inhibition at 5 µM,[25],1%
same,inhibition at 5 µM,[26],8%
same,inhibition at 5 µM,[27],39%
same,inhibition at 5 µM,[28],6%
same,inhibition at 5 µM,[29],0%
same,inhibition at 5 µM,[30],3%
same,inhibition at 5 µM,[31],4%
same,inhibition at 5 µM,[32],5%
same,inhibition at 5 µM,[33],4%
same,inhibition at 5 µM,[34],21%
same,inhibition at 5 µM,[35],0%
